Key:
Assay type in all cases: physicochemical
[1] = Water sorption/desorption on automatic water sorption analyzer DVS-1; conditions: 25° C.
Method: Anhydro form of ezetimibe was tested on the automatic water sorption analyzer DVS-1 (Surface Measurement Systems Ltd., London, GB) under the following conditions: • controlled room temperature (25° C.) • nitrogen flow 200 ml/min • two full cycles from 0% RH to 95% RH and back in eleven stages • minimal time per one stage (when dm/dt<0.002%) was 10 min • maximal time per one stage was 360 min.

[2] = Heating in Mettler HR73 Halogen Moisture Analyzer (LOD), then XRPD analysis
Excerpt: Hydrated form H of ezetimibe (from Example 30) was heated in a Mettler HR73 Halogen Moisture Analyzer. […] In all cases anhydro form of ezetimibe resulted according to XRPD analysis.
Pure S form of ezetimibe (tert.-butanol solvate; from Example 32) was heated in a Mettler HR73 Halogen Moisture Analyzer at different temperatures for the time indicated and analyzed by XRPD.

[3] = Drying in a vacuum dryer, XRPD analysis; conditions: ambient temperature, cca. 100 mbar
Method: Hydrated form H of ezetimibe was dried in a vacuum dryer at an ambient temperature and a pressure of cca. 100 mbar. After 1 h anhydrous form already predominated (A>H), after 2 h it became the sole form according to XRPD analysis.

[4] = Drying in an air dryer, XRPD analysis
Excerpt: Hydrated form H of ezetimibe was dried in an air dryer (RH was 35%) at two different temperatures.

Q: For `O=C1[C@H](CC[C@H](O)c2ccc(F)cc2)[C@@H](c2ccc(O)cc2)N1c1ccc(F)cc1` [Anhydro form of ezetimibe, 1-(4-fluorophenyl)-3(R)-[3-(4-fluorophenyl)-3(S)-hydroxypropyl]-4(S)-(4-hydroxyphenyl)-2-azetidinone], which “mass in the desorption cycle” value ([1]; at 20% RH) is on record?
A: The value was “dropped sharply”.

Q: What about the “mass in the desorption cycle” value ([1]; down to 30% RH) of the same compound?
A: The value was “not significantly changed”.

Q: What about the “water sorption, mass change at equilibrium” value ([1]; first cycle, 60% RH) of the same compound?
A: The value was 4.2%.

Q: And the “water sorption, total” value ([1]; first cycle, 95% RH)?
A: Its value is 4.4%.

Q: What about the absorption of water ([1]; first cycle, up to 50% RH) of the same compound?
A: Its absorption of water is “no significant absorption of water”.

Q: And the water sorption ([1]; second cycle, 50% RH)?
A: Its water sorption is “increased sharply”.

Q: With `O=C1[C@H](CC[C@H](O)c2ccc(F)cc2)[C@@H](c2ccc(O)cc2)N1c1ccc(F)cc1` [Hydrated form H of ezetimibe, 1-(4-fluorophenyl)-3(R)-[3-(4-fluorophenyl)-3(S)-hydroxypropyl]-4(S)-(4-hydroxyphenyl)-2-azetidinone] as the compound, how does the “time to constant value of LOD” value ([2]; 50° C.) read?
A: The value was 11.5 min.

Q: What about the “time to constant value of LOD” value ([2]; 60° C.) of the same compound?
A: The value was 6.5 min.

Q: And the “time to constant value of LOD” value ([2]; 70° C.)?
A: The value was 4.5 min.

Q: And the “resulting form according to XRPD analysis” value ([2]; after heating at 50, 60 or 70° C. to constant LOD)?
A: The value was “anhydro form”.

Q: What about the “Constant value of LOD” value ([2]; heated at 50° C., 60° C. or 70° C.) of the same compound?
A: Its value is −4.5%.

Q: And the “form according to XRPD analysis” value ([3]; after 1 h)?
A: The value was “A>H”.

Q: And the “form according to XRPD analysis” value ([3]; after 2 h)?
A: The value was “sole form”.

Q: And the “form detected according to XRPD analysis” value ([4]; air dryer, RH 35%, 40° C., after 1 h)?
A: The value was “only anhydro form”.

Q: And the “temperature at which converted to anhydrous form A” value ([4]; upon drying)?
A: Its value is “about 40 °C”.

Q: With `O=C1[C@H](CC[C@H](O)c2ccc(F)cc2)[C@@H](c2ccc(O)cc2)N1c1ccc(F)cc1` [S form of ezetimibe, 1-(4-fluorophenyl)-3(R)-[3-(4-fluorophenyl)-3(S)-hydroxypropyl]-4(S)-(4-hydroxyphenyl)-2-azetidinone] as the compound, how does the stability upon drying [2] read?
A: Its stability upon drying is “stable upon drying”.

Q: And the “LOD (%)” value ([2]; 50 ° C., 14 min)?
A: The value was −0.83%.

Q: And the “LOD (%)” value ([2]; 60 ° C., 10.5 min)?
A: The value was −1.10%.

Q: And the “LOD (%)” value ([2]; 70 ° C., 9 min)?
A: The value was −2.34%.

Q: What about the “LOD (%)” value ([2]; 130 ° C., 4.5 min) of the same compound?
A: The value was −12.0%.

Q: And the loss of drying ([2]; temperature of about 70° C.)?
A: The loss of drying was “only minimal loss of drying”.
